{"source": "patent US20050277634A1", "about": "“Liquid composition for veterinary medicine and process for the preparation and use thereof” (Boehringer Ingelheim Vetmedica GmbH, priority 2004, published 2005)", "origin": "cited, not measured here", "details": "injectable solution, subcutaneous administration"}
{"smiles": "Cc1cnc(NC(=O)C2=C(O)c3ccccc3S(=O)(=O)N2C)s1", "note": "[meloxicam]", "values": [{"measurement": "Bioavailability", "value": "fully bioavailable"}, {"measurement": "Time to maximum plasma concentrations", "value": "after a few hours"}]}
